Results: patent publication US20090281054A1, “COMPOSITIONS AND METHODS COMPRISING CAPURAMYCIN ANALOGUES” (priority 2008, published 2009)
Values after ≈ are worked out from the molar mass of the structure shown. Read-outs that look alike come from different tables or passages of the source.

Key:
[1] = tested on: Mycobacterium tuberculosis (MTB); assay: MIC by BACTEC radiometric method; type: cell-based
Method: Determination of MIC. MIC of drugs for laboratory and clinical strains of Mycobacterium tuberculosis (MTB) was determined by BACTEC radiometric method as described by Heifets (1991), “Antituberculosis Drugs: Antimicrobial Activity in vitro, Drug Susceptibility in the Chemotherapy of Microbacterial Infections, Boca Raton, Fla., CRC Press and Luna-Herrera et al., Antimicrob. Agents and Chemother. 1995, 39(2), 440-444. […] The minimal inhibitory concentration (MIC) was defined as the lowest concentrations of drug that caused GI equal to or less than that of the 1/100 dilution growth control. Capuramycin analogues SQ641, SQ922 and SQ997 were tested at concentrations ranging from […].

translocase I = translocase I (Escherichia coli, UniProt P0A6W3); assay: IC50 against translocase I; type: biochemical
Sequence of translocase I (P0A6W3 whole entry): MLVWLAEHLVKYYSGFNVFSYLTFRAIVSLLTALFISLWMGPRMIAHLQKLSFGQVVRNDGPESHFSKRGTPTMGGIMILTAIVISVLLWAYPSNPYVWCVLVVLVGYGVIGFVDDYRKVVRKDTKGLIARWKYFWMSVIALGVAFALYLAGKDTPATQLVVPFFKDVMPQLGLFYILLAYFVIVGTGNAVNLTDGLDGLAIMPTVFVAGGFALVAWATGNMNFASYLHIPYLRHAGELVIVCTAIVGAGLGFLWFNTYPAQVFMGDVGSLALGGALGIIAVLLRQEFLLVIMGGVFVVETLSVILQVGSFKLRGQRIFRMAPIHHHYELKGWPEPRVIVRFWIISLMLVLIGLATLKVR

M. avium complex (MAC) = assay: MIC by microdilution method in 7H9 broth; type: cell-based; settings: Mycobacterium avium
MTB H37Rv = assay: MIC by broth microdilution; type: cell-based; settings: Mycobacterium tuberculosis
Method: (§1) The SQ997 amino acid derivatives shown in Table 2 were tested for in vitro activity against MTB, cytotoxicity for uninfected J774 cells to determine IC50, and for intracellular activity in the macrophage assay (Table 15). […] Cell viability remained similar to SQ997, or slightly better as cell morphologic changes were reduced.

MTB = assay: In vivo efficacy in mouse model of chronic TB disease (lung CFU); settings: mice treated for 3 wk, starting 3 wk after infection, gav, ip, iv
Method: In vivo activity against MTB. In vivo efficacy of CM analogues was investigated in a mouse model of chronic TB disease (FIG. 2). Three wk after infection, mice were treated for 3 wk with the drugs by gavage (gav), intraperitoneal injection (ip), intravenous injection (iv), or intranasal (in) routes. Efficacy was analyzed by determining Colony-Forming Units (CFU) in lungs. […] Each achieved a decrease of 1-log10 lung CFU compared to the late control [LC] CFU by at least one route, which varied for each drug.

MTB cultures = assay: Induction of morphological changes and bacterial disintegration; type: cell-based, Mycobacterium tuberculosis
Source text: Induction of morphological changes and bacterial disintegration. […] Tubercle bacilli exposed to CM analogues were typically club-shaped, with deeply stained swollen ends (see Reddy et al. Antimicrob. Agents Chemother., 2008, 52(2), 719-721).

in vitro = type: cell-based; settings: mouse
Method: as §1

MSMG and MTB (H37Rv) = assay: Minimum bactericidal concentration (MBC), MBC/MIC ratio; type: cell-based, Mycobacterium tuberculosis; M. smegmatis
[2] = tested on: M. abscessus (MAB; ATCC 700869); assay: MIC by microdilution method in 7H9 broth; type: cell-based; settings: Mycobacteroides abscessus, ATCC700869; MAB 700869; read-out: MIC
[3] = 4-day IV injections at 1000 mg/kg/day
[4] = tested on: M. smegmatis (MSMG; MC2155); assay: MIC by microdilution method in 7H9 broth; type: cell-based; settings: MSMG MC^2155, 72 hr
[5] = tested on: M. kansaii (MKN; ATCC12478 & 35775); assay: MIC by microdilution method in 7H9 broth; type: cell-based, M. kansasii; settings: Mycobacterium kansasii, read-out: MIC

With CO[C@H]1[C@@H](O)[C@H](n2ccc(=O)[nH]c2=O)O[C@@H]1[C@@H](O[C@H]1OC(C(=O)N[C@H]2CCC[C@@H](C)NC2=O)=C[C@H](O)[C@@H]1O)C(N)=O [SQ997] the MIC ([1]; H37RV, MTB strain H37Rv) was 8 µg/mL (≈ 13.7 µM), the MIC90 ([1]; MTB) was 16 µg/mL (≈ 27.4 µM) and the MIC ([1]; MTB strain 16) was 16 µg/mL (≈ 27.4 µM). For the same molecule, the MIC ([1]; MTB strain 113) was 16 µg/mL (≈ 27.4 µM), the MIC ([1]; MTB strain 158) was 8 µg/mL (≈ 13.7 µM) and the MIC ([1]; MTB strain 606) was 16 µg/mL (≈ 27.4 µM). It also gave an MIC ([1]; MTB strain 847) of 16 µg/mL (≈ 27.4 µM), an MIC ([1]; MTB strain 1351) of 16 µg/mL (≈ 27.4 µM) and an MIC ([1]; MTB strain 1407) of 16 µg/mL (≈ 27.4 µM). It also gave an MIC ([1]; MTB strain 1498) of 16 µg/mL (≈ 27.4 µM), an MIC ([1]; MTB strain 1665) of 16 µg/mL (≈ 27.4 µM) and an MIC ([1]; MTB strain 1703) of 16 µg/mL (≈ 27.4 µM). For the same molecule, the MIC ([1]; MTB strain 1760) was greater than 16 µg/mL, the MIC ([1]; MTB strain 1782) was greater than 16 µg/mL and the MIC ([1]; MTB strain 1901) was 16 µg/mL (≈ 27.4 µM). It also gave an MIC ([1]; MTB strain 1921) of 16 µg/mL (≈ 27.4 µM), an MIC ([1]; MTB strain 2224) of 16 µg/mL (≈ 27.4 µM) and an MIC ([1]; MTB strain 2554) of 16 µg/mL (≈ 27.4 µM). For the same molecule, the MIC ([1]; MTB strain 2693) was 16 µg/mL (≈ 27.4 µM), the MIC ([1]; MTB strain 8266) was 8 µg/mL (≈ 13.7 µM) and the MIC ([1]; MTB strain 8642) was 16 µg/mL (≈ 27.4 µM). For the same molecule, the “IC50 against translocase I” value (translocase I) was 0.01 µg/mL (≈ 0.0171 µM), the MIC (M. avium complex (MAC); 336 h, MAC isolates, 2 wk, read-out: MIC (range)) was 4 to 32 µg/mL (≈ 6.85 to 54.8 µM) and the MIC (M. avium complex (MAC); MAC strain 100, read-out: MIC) was 16 µg/mL (≈ 27.4 µM). It also gave an MIC (M. avium complex (MAC); MAC strain 101, read-out: MIC) of 8 µg/mL (≈ 13.7 µM), an MIC (M. avium complex (MAC); MAC strain 104, read-out: MIC) of 16 µg/mL (≈ 27.4 µM) and an MIC (M. avium complex (MAC); MAC strain 109, read-out: MIC) of 8 µg/mL (≈ 13.7 µM). It also gave an MIC (M. avium complex (MAC); MAC strain A5, read-out: MIC) of 16 µg/mL (≈ 27.4 µM), an MIC (M. avium complex (MAC); MAC strain JSH1, read-out: MIC) of 32 µg/mL (≈ 54.8 µM) and an MIC (M. avium complex (MAC); MAC strain NIH C1-1, read-out: MIC) of 8 µg/mL (≈ 13.7 µM). It also gave an MIC (M. avium complex (MAC); MAC strain NIH C1-2, read-out: MIC) of 4 µg/mL (≈ 6.85 µM), an MIC (M. avium complex (MAC); MAC strain NIH C1-3, read-out: MIC) of 16 µg/mL (≈ 27.4 µM) and an MIC (M. avium complex (MAC); MAC strain NIH C1-4, read-out: MIC) of 8 µg/mL (≈ 13.7 µM). The MIC90 (M. avium complex (MAC); MAC isolates, value in square brackets, read-out: MIC90) was 16 µg/mL (≈ 27.4 µM), the MIC (MTB H37Rv) was 8 µg/mL (≈ 13.7 µM) and the “Routes by which replication of MTB in lungs was prevented (vs early control)” value (MTB) was “gav and iv”. The “Bacterial disintegration / clearance of MTB cultures” value (MTB cultures; MTB cultures) was “rapid bacterial disintegration”, the “Turbidity of MTB cultures” value (MTB cultures; within 2 days of exposure) was “marked fall in the turbidity” and the IC50 (in vitro) was greater than 32 µg/mL. The MBC/MIC ratio (MSMG and MTB (H37Rv)) was 1, the MIC [2] was 16 µg/mL (≈ 27.4 µM) and the Toxicity [3] was “No toxicity”. For the same molecule, the MIC [4] was 8 µg/mL (≈ 13.7 µM), the MIC ([4]; Mycolicibacterium smegmatis, MC2155|MC^2155, read-out: MIC) was 8 µg/mL (≈ 13.7 µM) and the MIC ([5]; ATCC 12478 / ATCC 35775, MKN ATCC35775) was 4 µg/mL (≈ 6.85 µM). The MIC ([5]; MKN ATCC12478) was 16 µg/mL (≈ 27.4 µM).
